How the values were obtained:
[1] = molecular target: human melatonin 2 receptors (human MT2 receptors) (Homo sapiens (Human), UniProt P49286); assay: Melatonin receptor binding assay, 2-[125I] Iodomelatonin, CHO-hMT2 cell membrane fraction; conditions: binding inhibition of 2-[125I] Iodomelatonin, CHO-hMT2 membranes, 25° C., 2.5 hr
Experimental: (§1) Melatonin Receptor Binding Assay
(2) Preparation of CHO-hMT2 Cells Expressing Human Melatonin 2 Receptors
CHO-K1 cells (ATCC, #CCL-61) were plated at the concentration of 1.5×10^5 cells/cm^2 in a 6 well plate (ASAHI TECHNO GLASS), and cultured under the conditions of 37° C., 5% CO2 for 24 hr.
(§2) (3) Preparation of Cell Membrane Fraction of CHO Cell (CHO-hMelR7 and CHO-hMT2) Stably Expressing Human MT1 and MT2 Receptors
(§3) CHO-hMelR7 and CHO-hMT2 cells were plated using Cellfactory (Nunc, #170009) under the conditions of 1×10^8 cells/2000 mL/flask. The cells were grown to confluent, and recovered by the following method. As the medium for CHO-hMelR7 and CHO-hMT2, MEM α containing 10% FBS and penicillin/streptomycin was used. […] of geneticin was added to the medium for CHO-hMT2.
(§4) The medium was discarded, cells were washed twice with 200 mL of EDTA/PBS(−), 200 mL of EDTA/PBS(−) was further added, and the cells were stood still at room temperature for 20 min until they were released. […] The mixture was further centrifuged at 1,500 rpm for 10 min at 4° C., and the obtained pellets were suspended in 20 mL of ice-cooled homogenizing buffer [10 mM NaHCO3, 5 mM EDTA, Protease inhibitor Complete (Roche), pH 7.4]. The cell suspension was homogenized 3 times using a polytron homogenizer at 20,000 rpm for 30 sec. The obtained homogenate was centrifuged (2,000 rpm, 10 min, 4° C.) using a low speed cooling centrifuge. The supernatant was recovered in an ultracentrifugation tube and ultracentrifuged (40,000 rpm, 60 min, 4° C.) using an ultracentrifuge (Beckman, L-90K). To the obtained pellets was added a suspending buffer [50 mM Tris-HCl, 1 mM EDTA, Protease inhibitor Complete (Roche), pH 7.4], and the pellets were suspended by pipetting. The protein concentration of this suspension was measured, diluted to 2 mg/mL to give cell membrane fractions of CHO-hMelR7 and CHO-hMT2 cells. […] Protein was quantified using BCA protein assay kit (Pierce) with BSA as the standard.
(§5) (4) Preparation of Membrane Fraction Suspension
(§6) Immediately before use, the membrane fractions of CHO-hMelR7 and CHO-hMT2 cells of the above-mentioned (3) were diluted 20-fold with assay buffer (50 mM Tris-HCl, pH 7.7).
(§7) Iodomelatonin (#NEX236, PerkinElmer) was diluted with the assay buffer to 400 pM for MT1 and 1 nM for MT2.
(§8) Then, a test compound (compound solution diluted with DMSO to 200-fold of the final measurement concentration) was added by 2 μL. 2 μL of DMSO was added to each well of the total binding control section, and 100 μM cold Melatonin solution (Sigma, diluted with DMSO to 100 μM) was added to each well of the nonspecific binding control section by 2 μL. Then, the membrane fraction suspension (100 μL) was added. […] Iodomelatonin solution of the above-mentioned (5) was added to each well mentioned above by 20 μL, and a binding reaction was carried out at 25° C. for 2.5 hr in a micromixer (TAITEC, Bioshaker M.BR-024).
(§9) Using a cell harvester (PerkinElmer), the binding reaction mixture in each well of the 96-well plate was transferred to a treated (immersed in 50 mM Tris, pH 7.7 in advance) filter plate (UniFilter GF/C, PerkinElmer) and filtered. After filtration, the plate was washed 4 times with the assay buffer, and dried in a dryer (42° C.) for 2 hr or more. 25 μL of a liquid scintillator (MicroScint O, PerkinElmer) was added to each well of the filter plate after drying, and the luminescence of scintillator was measured by TopCount (PerkinElmer) for 1 min.
(§10) Specific binding is a value obtained by subtracting nonspecific binding from the total binding. The binding inhibitory activity of the test compound is shown by the ratio of the value obtained by subtracting the measurement value when the test compound was added from the total binding, to the specific binding.

[2] = molecular target: human melatonin 1 receptors (human MT1 receptors) (Homo sapiens (Human), UniProt P48039); assay: Melatonin receptor binding assay, 2-[125I] Iodomelatonin, CHO-hMelR7 cell membrane fraction; conditions: binding inhibition of 2-[125I] Iodomelatonin, CHO-hMelR7 membranes, 25° C., 2.5 hr
human melatonin 1 receptors (human MT1 receptors), sequence (P48039 whole entry): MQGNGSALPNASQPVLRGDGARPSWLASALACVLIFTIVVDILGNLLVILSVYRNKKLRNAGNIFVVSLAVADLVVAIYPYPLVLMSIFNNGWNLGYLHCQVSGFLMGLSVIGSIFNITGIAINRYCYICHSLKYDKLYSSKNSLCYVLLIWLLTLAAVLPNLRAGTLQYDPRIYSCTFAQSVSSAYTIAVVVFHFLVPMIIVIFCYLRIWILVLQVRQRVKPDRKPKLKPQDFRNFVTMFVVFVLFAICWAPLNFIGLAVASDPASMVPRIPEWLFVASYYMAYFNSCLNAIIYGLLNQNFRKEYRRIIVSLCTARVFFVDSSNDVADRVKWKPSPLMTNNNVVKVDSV
Experimental: as §1
(1) Preparation of CHO-hMelR7 Cells Expressing Human Melatonin 1 Receptors
as §2, §3, §4, §5, §6, §7, §8, §9, §10

human melatonin 2 receptors (human MT2 receptors), sequence (P49286 whole entry): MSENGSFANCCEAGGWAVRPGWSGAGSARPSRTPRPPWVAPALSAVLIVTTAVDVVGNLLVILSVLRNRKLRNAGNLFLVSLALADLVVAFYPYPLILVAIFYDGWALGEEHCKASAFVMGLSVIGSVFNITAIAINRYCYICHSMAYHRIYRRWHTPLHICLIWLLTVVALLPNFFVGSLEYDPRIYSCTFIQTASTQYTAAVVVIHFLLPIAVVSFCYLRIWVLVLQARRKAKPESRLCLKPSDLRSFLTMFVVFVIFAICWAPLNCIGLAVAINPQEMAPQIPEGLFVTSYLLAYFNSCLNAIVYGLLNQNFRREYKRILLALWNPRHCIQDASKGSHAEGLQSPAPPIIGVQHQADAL

| Compound | IC50 [1] | IC50 [2] | melting point |
| --- | --- | --- | --- |
| CCC(=O)NCC=C1CCc2ccc3nc(CCCCc4ccccc4)oc3c21 [Example 7, N-{2-[2-(4-Phenylbutyl)-6,7-dihydro-8H-indeno[5,4-d][1,3]oxazol-8-ylidene]ethyl}propionamide] | – | – | 111 to 113 °C |
| CCC(=O)NCCC1CCc2ccc3ncoc3c21 (stereo not drawn) [Example 10, N-[2-(7,8-Dihydro-6H-indeno[5,4-d][1,3]oxazol-8-yl)ethyl]propionamide] | – | – | 89 to 90 °C |
| CC(=O)NCC[C@H]1CCc2ccc3nc(C)sc3c21 [Example 21, (R)-N-[2-(2-Methyl-7,8-dihydro-6H-indeno[5,4-d][1,3]thiazol-8-yl)ethyl]acetamide] | 8.5 nM | 19 nM | – |
| CC(=O)NCC=C1CCc2ccc3nc(C)oc3c21 [Example 3, N-[2-(2-Methyl-6,7-dihydro-8H-indeno[5,4-d][1,3]oxazol-8-ylidene)ethyl]acetamide] | 0.37 nM | 0.33 nM | 188 to 190 °C |
| CC(=O)NCCC1CCc2ccc3nc(-c4ccccc4)oc3c21 (stereo not drawn) [Example 30, N-[2-(2-Phenyl-7,8-dihydro-6H-indeno[5,4-d][1,3]oxazol-8-yl)ethyl]acetamide] | – | – | 124 to 126 °C |
| CC(=O)NCCC1=CCc2ccc3nc(C)oc3c21 [Example 4, N-[2-(2-Methyl-6H-indeno[5,4-d][1,3]oxazol-8-yl)ethyl]acetamide] | 0.24 nM | 0.068 nM | 154 to 156 °C |
| CCC(=O)NCC=C1CCc2ccc3nc(C)oc3c21 [Example 5, N-[2-(2-Methyl-6,7-dihydro-8H-indeno[5,4-d][1,3]oxazol-8-ylidene)ethyl]propionamide] | 0.22 nM | 0.25 nM | 214 to 216 °C |
| CC(=O)NCC=C1CCc2ccc3nc(C)sc3c21 [Example 8, N-[2-(2-Methyl-6,7-dihydro-8H-indeno[5,4-d][1,3]thiazol-8-ylidene)ethyl]acetamide] | 0.22 nM | 0.19 nM | 184 to 186 °C |
| Cc1nc2ccc3c(c2o1)C(CCNC(=O)C1CC1)CC3 (stereo not drawn) [Example 43, N-[2-(2-Methyl-7,8-dihydro-6H-indeno[5,4-d][1,3]oxazol-8-yl)ethyl]cyclopropanecarboxamide] | 0.77 nM | 0.25 nM | 134 to 137 °C |
| CCNC(=O)NCCC1CCc2ccc3nc(C)oc3c21 (stereo not drawn) [Example 46, 1-Ethyl-3-[2-(2-methyl-7,8-dihydro-6H-indeno[5,4-d][1,3]oxazol-8-yl)ethyl]urea] | – | – | 136 to 138 °C |
| CC(=O)NCCC1CCc2ccc3nc(CCCc4ccccc4)oc3c21 (stereo not drawn) [Example 33, N-{2-[2-(3-Phenylpropyl)-7,8-dihydro-6H-indeno[5,4-d][1,3]oxazol-8-yl]ethyl}acetamide] | – | – | 95 to 97 °C |
| Cc1nc2ccc3c(c2o1)C(CCNC(=O)C(F)(F)F)CC3 (stereo not drawn) [Example 45, 2,2,2-Trifluoro-N-[2-(2-methyl-7,8-dihydro-6H-indeno[5,4-d][1,3]oxazol-8-yl)ethyl]acetamide] | 0.14 nM | 0.095 nM | 104 to 106 °C |
| CCC(=O)NCC=C1CCc2ccc3ncoc3c21 [Example 2, N-[2-(6,7-Dihydro-8H-indeno[5,4-d][1,3]oxazol-8-ylidene)ethyl]propionamide] | – | – | 148 to 150 °C |
| CC(=O)NCCC1CCc2ccc3nc(CCCCc4ccccc4)oc3c21 (stereo not drawn) [Example 17, N-{2-[2-(4-Phenylbutyl)-7,8-dihydro-6H-indeno[5,4-d][1,3]oxazol-8-yl]ethyl}acetamide] | 0.091 nM | 0.022 nM | – |
| CC(=O)NCCC1CCc2ccc3nc(CCc4ccccc4)oc3c21 (stereo not drawn) [Example 32, N-{2-[2-(2-Phenylethyl)-7,8-dihydro-6H-indeno[5,4-d][1,3]oxazol-8-yl]ethyl}acetamide] | – | – | 85 to 87 °C |
| Cc1nc2ccc3c(c2o1)C(CCNC(=O)c1ccccc1)CC3 (stereo not drawn) [Example 44, N-[2-(2-Methyl-7,8-dihydro-6H-indeno[5,4-d][1,3]oxazol-8-yl)ethyl]benzamide] | – | – | 73 to 76 °C |
| CC(=O)NCCC1=C(C(C)C)Cc2ccc3nc(C)oc3c21 [Example 49, N-[2-(7-Isopropyl-2-methyl-6H-indeno[5,4-d][1,3]oxazol-8-yl)ethyl]acetamide] | – | – | 135 to 138 °C |

Other lines, results leading:

| IC50 [1] | IC50 [2] | melting point | Compound |
| --- | --- | --- | --- |
| 6.2 nM | 11 nM | – | CCC(=O)NCC[C@H]1CCc2ccc3nc(C)oc3c21 [Example 16, (R)-N-[2-(2-Methyl-7,8-dihydro-6H-indeno[5,4-d][1,3]oxazol-8-yl)ethyl]propionamide] |
| 0.28 nM | 0.13 nM | – | CCC(=O)NCCC1CCc2ccc3nc(C)oc3c21 (stereo not drawn) [Example 14, N-[2-(2-Methyl-7,8-dihydro-6H-indeno[5,4-d][1,3]oxazol-8-yl)ethyl]propionamide] |
| 0.31 nM | 0.88 nM | – | CC(=O)NCCC1CCc2ccc3ncoc3c21 (stereo not drawn) [Example 9, N-[2-(7,8-Dihydro-6H-indeno[5,4-d][1,3]oxazol-8-yl)ethyl]acetamide] |
| – | – | 132 to 134 °C | CC(=O)NCCC1CCc2ccc3nc(CO)oc3c21 (stereo not drawn) [Example 23, N-{2-[2-(Hydroxymethyl)-7,8-dihydro-6H-indeno[5,4-d][1,3]oxazol-8-yl]ethyl}acetamide] |
| – | – | 111 to 112 °C | CC(=O)CCc1nc2ccc3c(c2o1)C(CCNC(C)=O)CC3 (stereo not drawn) [Example 28, N-{2-[2-(3-Oxobutyl)-7,8-dihydro-6H-indeno[5,4-d][1,3]oxazol-8-yl]ethyl}acetamide] |
| – | – | 114 to 116 °C | CC(=O)NCCC1CCc2ccc3nc(C(F)(F)F)oc3c21 (stereo not drawn) [Example 25, N-{2-[2-(Trifluoromethyl)-7,8-dihydro-6H-indeno[5,4-d][1,3]oxazol-8-yl]ethyl}acetamide] |
| 0.41 nM | 0.36 nM | 76 to 78 °C | CCc1nc2ccc3c(c2o1)C(CCNC(C)=O)CC3 (stereo not drawn) [Example 22, N-[2-(2-Ethyl-7,8-dihydro-6H-indeno[5,4-d][1,3]oxazol-8-yl)ethyl]acetamide] |
| – | – | 115 to 117 °C | CSc1nc2ccc3c(c2o1)C(CCNC(C)=O)CC3 (stereo not drawn) [Example 39, N-{2-[2-(Methylthio)-7,8-dihydro-6H-indeno[5,4-d][1,3]oxazol-8-yl]ethyl}acetamide] |
| 0.31 nM | 0.15 nM | – | CC(=O)NCCC1CCc2ccc3nc(C)oc3c21 (stereo not drawn) [Example 11, N-[2-(2-Methyl-7,8-dihydro-6H-indeno[5,4-d][1,3]oxazol-8-yl)ethyl]acetamide] |
| 0.75 nM | 0.66 nM | 92 to 95 °C | CC(=O)NCCC1CCc2ccc3nc(C4CC4)oc3c21 (stereo not drawn) [Example 29, N-[2-(2-Cyclopropyl-7,8-dihydro-6H-indeno[5,4-d][1,3]oxazol-8-yl)ethyl]acetamide] |
| 9.6 nM | 15 nM | – | CC(=O)NCC[C@H]1CCc2ccc3nc(C)oc3c21 [Example 13, (R)-N-[2-(2-Methyl-7,8-dihydro-6H-indeno[5,4-d][1,3]oxazol-8-yl)ethyl]acetamide] |
